According to patent publication US20130029942A1, “COMPOUNDS AND THERAPEUTICAL USES THEREOF” (Myrexis, Inc., priority 2003, published 2013):

What follows are compounds tested on T-47D cells (assay: Caspase cascade activation / induction of apoptosis in T-47D cells (fluorogenic N-(Ac-DEVD)-N'-ethoxycarbonyl-R110 substrate)). Conditions: Homo sapiens, T47D, 24 h, read-out: T-47D (24 hr) EC50 (nM).
Format: cell-based, human
With `[2H]c1c([2H])c(N(C)c2nc(C)nc3ccccc23)c([2H])c([2H])c1OC` [Example 108, (4-Methoxy-phenyl-2,3,5,6-d4)-(2-methyl-quinazolin-4-yl)-methyl-amine] the EC50 was 1 nM. For `COc1ccc(N(C)c2nc(C)nc3cc([N+](=O)[O-])ccc23)cc1` [Example 112, (4-Methoxy-phenyl)-methyl-(2-methyl-7-nitro-quinazolin-4-yl)-amine], the EC50 was over 10000 nM.

Same assay, conditions: Homo sapiens, T47D; T-47D, 24 hr; read-out: T-47D (24 hr) EC50
`Cc1nc(N(C)c2ccc(OC(C)C)cc2)c2ccccc2n1` [Example 86, (4-Isopropoxy-phenyl)-(2-methyl-quinazolin-4-yl)-methyl-amine] showed an EC50 of 41 nM. `CCc1ccc(N(C)c2nc(C)nc3ccccc23)cc1` [Example 87, (4-Ethyl-phenyl)-(2-methyl-quinazolin-4-yl)-methyl-amine] gave an EC50 of 25 nM. `COc1cc(OC)c(N(C)c2nc(C)nc3ccccc23)c(OC)c1` [Example 88, (2-Methyl-quinazolin-4-yl)-(2,4,6-trimethoxy-phenyl)-methyl-amine] showed an EC50 of 556 nM. In the case of `COc1ccc(N(C)c2nc(Cl)nc3cccc(Cl)c23)cc1` [Example 90, (2,5-Dichloro-quinazolin-4-yl)-(4-methoxy-phenyl)-methyl-amine], the EC50 is reported as 2 nM. `COc1ccc(N(C)c2nc(C)nc3cccc(OC)c23)cc1` [Example 91, (5-Methoxy-2-methyl-quinazolin-4-yl)-(4-methoxy-phenyl)-methyl-amine] gave an EC50 of 4 nM. With `COc1ccc(N(C)c2nc(C)nc3ncccc23)cc1` [Example 92, (4-Methoxy-phenyl)-(2-methyl-pyrido[2,3-d]pyrimidin-4-yl)-methyl-amine] the EC50 was 16 nM. For `Cc1nc(N(C)c2ccc(O)cc2)c2ccccc2n1` [Example 93, (4-Hydroxy-phenyl)-(2-methyl-quinazolin-4-yl)-methyl-amine], the EC50 was 65 nM. `COc1ccc(Nc2nc(C)nc3ccccc23)cn1` [Example 95, (2-Methyl-quinazolin-4-yl)-(6-methoxy-pyridin-3-yl)-amine] showed an EC50 of over 10000 nM. For `COc1ccc(Nc2nc(C)nc3ccccc23)c(F)c1` [Example 96, (2-Fluoro-4-methoxy-phenyl)-(2-methyl-quinazolin-4-yl)-amine], the EC50 was over 10000 nM. For `COc1ccc(N(C)c2nc(C)nc3ccccc23)c(F)c1` [Example 99, (2-Fluoro-4-methoxy-phenyl)-(2-methyl-quinazolin-4-yl)-methyl-amine], the EC50 was 4 nM. In the case of `Cc1nc(N(C)c2ccc([N+](=O)[O-])cc2)c2ccccc2n1` [Example 100, (2-Methyl-quinazolin-4-yl)-(4-nitro-phenyl)-methyl-amine], the EC50 is reported as 474 nM. In the case of `Cc1nc(N(C)c2ccc(N)cc2)c2ccccc2n1` [Example 101, (4-Amino-phenyl)-(2-methyl-quinazolin-4-yl)-methyl-amine], the EC50 is reported as 175 nM. Work on `Cc1nc(N(C)c2ccc(N=[N+]=[N-])cc2)c2ccccc2n1` [Example 102, (4-Azido-phenyl)-(2-methyl-quinazolin-4-yl)-methyl-amine] yielded an EC50 of 5 nM. `Cc1nc(N(C)c2c(Br)cc(N)cc2Br)c2ccccc2n1` [Example 103, (4-Amino-2,6-dibromo-phenyl)-(2-methyl-quinazolin-4-yl)-methyl-amine] gave an EC50 of 552 nM. Compound `Cc1nc(N(C)c2ccc(N)cc2Br)c2ccccc2n1` [Example 104, (4-Amino-2-bromo-phenyl)-(2-methyl-quinazolin-4-yl)-methyl-amine] has an EC50 of 134 nM. `Cc1nc(N(C)c2ccc(N(C)C)cc2)c2ccccc2n1` [Example 105, (4-Dimethylamino-phenyl)-(2-methyl-quinazolin-4-yl)-methyl-amine] gave an EC50 of 2 nM. `CCOc1ccc(Nc2nc(C)nc3ccccc23)cc1` [Example 106, (4-Ethoxy-phenyl)-(2-methyl-quinazolin-4-yl)-amine] was tested, and the EC50 was over 10000 nM. For `CCOc1ccc(N(C)c2nc(C)nc3ccccc23)cc1` [Example 107, (4-Ethoxy-phenyl)-(2-methyl-quinazolin-4-yl)-methyl-amine], the EC50 was 5 nM. In the case of `COc1ccc(N(C)c2nc(C)nc3ccc([N+](=O)[O-])cc23)cc1` [Example 109, (4-Methoxy-phenyl)-(2-methyl-6-nitro-quinazolin-4-yl)-methyl-amine], the EC50 is reported as 274 nM. In the case of `COc1ccc(N(C)c2nc(C)nc3ccc(N)cc23)cc1` [Example 110, (6-Amino-2-methyl-quinazolin-4-yl)-(4-methoxy-phenyl)-methyl-amine], the EC50 is reported as 7 nM. `COc1ccc(N(C)c2nc(C)nc3ccc(N=[N+]=[N-])cc23)cc1` [Example 111, (6-Azido-2-methyl-quinazolin-4-yl)-(4-methoxy-phenyl)-methyl-amine] showed an EC50 of 32 nM. `COc1ccc(N(C)c2nc(C)nc3cc(N)ccc23)cc1` [Example 113, (7-Amino-2-methyl-quinazolin-4-yl)-(4-methoxy-phenyl)-methyl-amine] showed an EC50 of 735 nM. `COc1ccc(N(C)c2nc(C)nc3cc(N=[N+]=[N-])ccc23)cc1` [Example 114, (7-Azido-2-methyl-quinazolin-4-yl)-(4-methoxy-phenyl)-methyl-amine] showed an EC50 of 130 nM. Compound `COc1c(Br)cc(N(C)c2nc(C)nc3ccc([N+](=O)[O-])cc23)cc1Br` [Example 115, (3,5-Dibromo-4-methoxy-phenyl)-(2-methyl-6-nitro-quinazolin-4-yl)-methyl-amine] has an EC50 of over 10000 nM. `Cc1nc(N(C)c2ccc(C(=O)O)cc2)c2ccccc2n1` [Example 116, 4-(N-Methyl-N-(2-methylquinazolin-4-yl)amino)benzoic Acid] gave an EC50 of over 10000 nM. `CCOC(=O)c1nc(N(C)c2ccc(OC)cc2)c2ccccc2n1` [Example 117, Ethyl 4-(N-(4-Methoxy-phenyl)-N-methylamino)quinazoline-2-carboxylate] gave an EC50 of 134 nM. For `COc1ccc(N(C)c2nc(C(=O)O)nc3ccccc23)cc1` [Example 118, 4-(N-(4-Methoxy-phenyl)-N-methylamino)quinazoline-2-carboxylic acid], the EC50 was over 10000 nM. For `Cc1nc(N(C)c2ccc(C(=O)ON3C(=O)CCC3=O)cc2)c2ccccc2n1` [Example 119, Succinimidyl 4-(N-Methyl-N-(2-methylquinazolin-4-yl)amino)benzoic acid ester], the EC50 was 4290 nM. With `COc1ccc(N(C)c2nc(SC)nc3ccccc23)cc1` [Example 120, (2-Methylthio-quinazolin-4-yl)-(4-methoxy-phenyl)-methyl-amine] the EC50 was 8 nM. For `COc1ccc(N(C)c2nc(N=[N+]=[N-])nc3ccccc23)cc1` [Example 121, (2-Azido-quinazolin-4-yl)-(4-methoxy-phenyl)-methyl-amine], the EC50 was 30 nM. Work on `COc1ccc(N(C)c2nc(N(C)C)nc3ccccc23)cc1` [Example 122, (2-Dimethylamino-quinazolin-4-yl)-(4-methoxy-phenyl)-methyl-amine] yielded an EC50 of 16 nM.

Same assay, conditions: Homo sapiens, T47D; T-47D, 48 hr; read-out: T-47D (48 hr) EC50
Work on `COc1ccc(N(C)c2nc(Cl)nc3c(Cl)cccc23)cc1` [Example 89, (2,8-Dichloro-quinazolin-4-yl)-(4-methoxy-phenyl)-methyl-amine] yielded an EC50 of 24 nM. Compound `CCOc1ccc(Nc2nc(Cl)nc3ccccc23)cc1` [Example 94, (2-Chloro-quinazolin-4-yl)-(4-ethoxy-phenyl)-amine] has an EC50 of over 10000 nM. Compound `CCOc1ccc(N(C)c2nc(Cl)nc3ccccc23)cc1` [Example 97, (2-Chloro-quinazolin-4-yl)-(4-ethoxy-phenyl)-methylamine] has an EC50 of 5 nM. In the case of `Cc1nc(N(C)c2ccc(N=[N+]=[N-])cc2)c2ccccc2n1` [Example 102, (4-Azido-phenyl)-(2-methyl-quinazolin-4-yl)-methyl-amine], the EC50 is reported as 16 nM.
